Results as given in US4810635A, “Specific binding assays employing label analog to reduce sample interferences” (Miles Inc., priority 1986, dated 1989).

Experiments:
[1] = system: riboflavin-binding monoclonal antibody (IgGλ monoclonal anti-flavin antibody) in the serum of a patient with multiple myeloma; conditions: cited from earlier work; for binding to the antibody relative to riboflavin: competitive-binding studies with flavin analogs and [14C]-labeled riboflavin
apoglucose oxidase = apoglucose oxidase (Aspergillus niger, UniProt P13006); test: hCG ARIS assay: recombination of hCG-FAD conjugate with apoglucose oxidase, with or without FMN; format: biochemical; conditions: 10 μM FMN, 5 nM hCG-FAD conjugate, no serum
Chain of apoglucose oxidase (P13006 23-605 limits assumed): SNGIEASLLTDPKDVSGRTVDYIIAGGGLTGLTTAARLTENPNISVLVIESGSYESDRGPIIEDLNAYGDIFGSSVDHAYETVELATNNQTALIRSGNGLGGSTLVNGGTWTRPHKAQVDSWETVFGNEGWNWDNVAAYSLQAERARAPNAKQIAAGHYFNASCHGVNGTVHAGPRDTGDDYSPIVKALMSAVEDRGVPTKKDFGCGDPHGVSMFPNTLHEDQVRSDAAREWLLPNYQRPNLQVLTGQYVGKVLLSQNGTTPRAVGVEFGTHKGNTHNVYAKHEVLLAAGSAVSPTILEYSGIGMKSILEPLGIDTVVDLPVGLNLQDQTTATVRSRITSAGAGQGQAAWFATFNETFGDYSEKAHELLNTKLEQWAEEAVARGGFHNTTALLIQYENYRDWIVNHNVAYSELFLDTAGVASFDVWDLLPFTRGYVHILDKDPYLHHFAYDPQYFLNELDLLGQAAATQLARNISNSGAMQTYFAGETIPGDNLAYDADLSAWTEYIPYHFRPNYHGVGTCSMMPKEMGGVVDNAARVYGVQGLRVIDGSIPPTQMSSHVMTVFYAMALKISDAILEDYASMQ
Description: In order to study the effect of flavin analogs in low level protein ARIS assays, a series of experiments were performed. In all cases the following manual assay protocol was employed. FAD-conjugate was incubated in 2.0 mL of assay mixture containing 10 mM DHSA, 0.1M glucose, 25 μg/mL horseradish peroxidase, 0.1% bovine serum albumin (BSA) in 0.1 M sodium phosphate at pH 7.0 with or without 5% serum and/or 10 μM FMN. After 30 minutes at 37° C., 100 μL of apoglucose oxidase/antiglucose oxidase (3 μM apoenzyme) in 50% glycerol and 4 μM 4-aminoantipyrene was added to initiate the reaction. Following a 30 minute assay incubation step at 37° C. the absorbance was measured at 520 nm.
Two controls were performed during this experiment: (1) conjugate, no serum, no FMN (maximum activity) and (2) conjugate, no serum, plus FMN (assess FMN effect on maximum activity).

For `Cc1cc2nc3c(=O)[nH]c(=O)nc-3n(C[C@H](O)[C@H](O)[C@H](O)COP(=O)(O)OP(=O)(O)OC[C@H]3O[C@@H](n4cnc5c(N)ncnc54)[C@H](O)[C@@H]3O)c2cc1C` [FAD, flavin adenine dinucleotide], the “binding to the antibody relative to riboflavin” value [1] is listed as “bound strongly to the antibody but not as tightly as FMN or riboflavin”.

In the case of `Cc1cc2nc3c(=O)[nH]c(=O)nc-3n(C[C@H](O)[C@H](O)[C@H](O)COP(=O)(O)O)c2cc1C` [FMN, flavin mononucleotide], the inhibition at 10 µM (apoglucose oxidase; read-out: decrease of the maximum activity of the conjugate) is given as ~9%, the activity at 10 µM (apoglucose oxidase; relative to conjugate without FMN (maximum activity)) is given as 91% and the “binding to the antibody relative to riboflavin” value [1] is given as “bound equally well to this antibody as riboflavin”.

In the case of `Cc1cc2nc3c(=O)[nH]c(=O)nc-3n(C[C@H](O)[C@H](O)[C@H](O)CO)c2cc1C` [riboflavin], the Kd ([1]; high affinity (reversible) flavin-binding site) is listed as 0.6 nM.
